Source: ChEMBL document CHEMBL3045362, “Iodine catalyzed one-pot synthesis of chloro-substituted linear and angular indoloquinolines and in vitro antiproliferative activity study of different indoloquinolines” (Med Chem Res, 2013)
In brackets after ≈: the same amount, converted by molar mass.

Experiments:
MCF7 = assay: Cytotoxicity against Homo sapiens (human) MCF-7 cells assessed as survival after 48 hr by MTT assay; assay type: functional, cell-based; conditions: MCF7, 48 h
HepG2 = assay: Cytotoxicity against Homo sapiens (human) HepG2 cells assessed as survival after 48 hr by MTT assay; assay type: functional, cell-based; conditions: HepG2, 48 h

Row | Structure (SMILES) | IC50 (MCF7) [µg/mL] | IC50 (HepG2) [µg/mL]
1 | c1ccc2[nH]c3nc4ccccc4c-3cc2c1 | > 1000 | > 1000
2 | c1ccc2c(c1)ccc1cc3c(nc12)[nH]c1ccccc13 | 71.4 (≈ 266 µM) | 98.1 (≈ 366 µM)
3 | Cc1cccc2cc3c(nc12)[nH]c1ccccc13 | 5.5 (≈ 23.7 µM) | 5.4 (≈ 23.2 µM)
4 | Brc1ccc2cc3c(nc2c1)[nH]c1ccccc13 | 42.8 (≈ 144 µM) | 34 (≈ 114 µM)
